US11744843B2, “Identification and treatment of T-cell epitopes of short H2A oncohistones” (Fred Hutchinson Cancer Research Center, priority 2020, dated 2023)
“Also recorded” adds a separate entry of the source.

Key:
Format in all cases: cell-based
[1] = test system: Hodgkin's lymphoma cell line (L-1236); experiment: Western blot of cleaved PARP, γ-H2A.X and tubulin after drug treatment, Hodgkin's lymphoma cell line L-1236
Method: FIGS. 11A to 11B. […] FIG. 11A illustrates a Western blot gel depicting marker expression following a 72 hour treatment with aclarubicin, etoposide, and doxorubicin. The markers are listed on the y-axis. The specific agents and amounts were added according to the labeling on the x-axis, which is fully described in the figure legend. FIG. 11B illustrates graphs of the relative band intensity taken from the Western blot and plotted according to drug concentration. The band intensity of PARP was used as an indicator of agent cytotoxicity. The band intensity of γ-H2A.X was used as an indicator of DNA damage (side effect). The band intensity of tubulin was used as a control.
(§1) FIG. 11A is a Western blot gel assessing expression of the markers listed on the y-axis. The specific cancer therapeutics and the amounts used are indicated by the numbers along the x-axis and the corresponding figure legend. In this Example, aclarubicin's cytotoxicity on lymphoma cells was assessed by determining the amount of cleaved PARP, which was assessed as band intensity (FIG. 11B) from the Western blot (FIG. 11A). In this Example, aclarubicin's corresponding DNA damage was assessed by measuring the amount of γ-H2A.X, which was assessed as band intensity (FIG. 11B) from the Western blot (FIG. 11A).

[2] = test system: Hodgkin's lymphoma cell line (L-428); experiment: Western blot of cleaved PARP, γ-H2A.X and tubulin after drug treatment, Hodgkin's lymphoma cell line L-428
Method: FIGS. 12A to 12B. […] FIG. 12A illustrates a Western blot gel as described in FIG. 11A. FIG. 12B illustrates graphs of the relative band intensity taken from the Western blot as described in FIG. 11B.
(§2) In FIGS. 12 and 13, similar experiments were performed to compare the cytotoxicity of aclarubicin to etoposide and doxorubicin in additional lymphoma cell lines. In FIG. 12, the compounds cytotoxicity and side effects were assessed in the Hodgkin's lymphoma cell line, L-428. In FIG. 13, the compounds cytotoxicity and side effects were assessed in the diffuse large B-cell lymphoma cell line, A3/KAW.

lymphoma cells = experiment: Western blot of cleaved PARP and γ-H2A.X, summary over the three lymphoma cell lines (FIGS. 11-13)
Method: as §1, §2

[3] = test system: diffuse large B-cell lymphoma cell line (A3/Kawakami); experiment: Western blot of cleaved PARP, γ-H2A.X and tubulin after drug treatment, diffuse large B-cell lymphoma cell line A3/Kawakami; conditions: compared with etoposide and doxorubicin
Method: FIGS. 13A to 13B. […] FIG. 13A illustrates a Western blot gel as described in FIG. 11A. FIG. 13B illustrates graphs of the relative band intensity taken from the Western blot as described in FIG. 11B.
as §2

[4] = L-1236, 72 hour treatment, 100 nM to 5.0 μM, compared with etoposide and doxorubicin
[5] = L-428, 72 hour treatment, compared with etoposide and doxorubicin

## CC[C@@]1(O)C[C@H](O[C@H]2C[C@H](N(C)C)[C@H](O[C@H]3C[C@H](O)[C@H](O[C@H]4CCC(=O)[C@H](C)O4)[C@H](C)O3)[C@H](C)O2)c2c(cc3c(c2O)C(=O)c2c(O)cccc2C3=O)[C@H]1C(=O)OC [aclarubicin]
[1]; [4]
  DNA damage (band intensity of γ-H2A.X, side effect): minimizing DNA damage
  apoptosis / cytotoxicity (band intensity of PARP): maximizes apoptosis
[1]; L-1236, compared with etoposide and doxorubicin
  relative band intensity of PARP/tubulin, PARP/γ-H2A.X and γ-H2A.X/Tubulin: best combination of anti-neoplastic activity while having fewer harmful side effects
[2]; [5]
  DNA damage (band intensity of γ-H2A.X, side effect): minimizing DNA damage
  apoptosis / cytotoxicity (band intensity of PARP): maximizes apoptosis
[2]; L-428, compared with etoposide and doxorubicin
  cytotoxicity and side effects (relative band intensities): best combination of anti-neoplastic activity while having fewer harmful side effects
Lymphoma cells; FIGS. 11-13, compared with doxorubicin or etoposide
  DNA damage as measured by γ-H2A.X; side effect profile: much less DNA damage; also recorded: much more favorable side effect profile than doxorubicin
Lymphoma cells; FIGS. 11-13, three lymphoma cell lines
  killing of lymphoma cells as measured by cleaved PARP; anti-neoplastic activity: efficiently kills lymphoma cells; also recorded: more anti-neoplastic activity than etoposide
[3]; A3/KAW
  cytotoxicity and side effects (relative band intensities): best combination of anti-neoplastic activity while having fewer harmful side effects
[3]; A3/Kawakami, 72 hour treatment
  DNA damage (band intensity of γ-H2A.X, side effect): minimizing DNA damage
  apoptosis / cytotoxicity (band intensity of PARP): maximizes apoptosis
